Test results reported in PMC12553364 (PeerJ, 2025).
Like-named read-outs stand apart in the source and are kept apart here.

Experiments:
[1] = Stability of analytes in rat plasma (UPLC-MS/MS method validation); format: in vitro ADME; conditions: n = 5
Procedure: The sensitivity of the method was reflected by the lower limit of quantification (LLOQ), which was also the lowest quantitative point. The LLOQ and three QC samples were obtained by the same method. […] All chemicals and solutions were stored at −80 °C for further use. Protein precipitation was used to remove proteins from plasma and extract the test materials. […] The mixture was then centrifuged at 13,000 rpm for 10 min at 4 °C to ensure complete protein precipitation. After centrifugation, the supernatant was carefully collected and transferred into a sample vial. Finally, 2.0 µL of sample was injected for UPLC-MS/MS analysis. The calibration curve, selectivity, accuracy, precision, recovery, matrix effect, and stability of the method established in this study were validated according to the FDA Bioanalytical Method Validation Guidance and the guidelines from the National Medical Products Administration (NMPA). Detailed information regarding the evaluation could be found in the Results and Discussion sections.

[2] = In vivo pharmacokinetic interaction study in Sprague-Dawley rats; conditions: for AUC(0-inf) / AUC(0-t) / Cmax / Tmax / half-life / CL/F: male, Sprague-Dawley, rat, plasma, po, 25 mg/kg, rat plasma, n = 5, mean ± S.D.; for CL/F: read-out: CLz/F (converted)
Procedure: Protein precipitation was used to remove proteins from plasma and extract the test materials. To this end, 100 µL of plasma sample was combined with 10 µL of the IS working solution (400 ng/mL) and 300 µL of acetonitrile. The mixture was then centrifuged at 13,000 rpm for 10 min at 4 °C to ensure complete protein precipitation. After centrifugation, the supernatant was carefully collected and transferred into a sample vial. Finally, 2.0 µL of sample was injected for UPLC-MS/MS analysis.
The study was approved by Institutional Animal Care and Use Committee of the First Affiliated Hospital of Wenzhou Medical University (Approval No. WYYY-IACUC-AEC-2024-079). The experimental animals were cared in accordance with the Guide for the Care and Use of Laboratory Animals issued by the National Research Council, complying with the ARRIVE guidelines. The 6–8 weeks old Sprague-Dawley rats were obtained from Vital River Laboratory Animal Technology Co., Ltd (China, Zhejiang). The rats were housed at 25 °C and given a 14-day acclimation period under experimental conditions to reduce potential variability.
Due to the similarity between their hepatic enzyme system and humans, SD male rats are widely used in pharmacokinetics ([Riccardi et al., 2018]; [Martignoni, Groothuis & De Kanter, 2006]). A total of 10 SD male rats (200 ± 20 g) were randomly divided into two groups (n = 5): Group A (control group) and Group B (experimental group). The animals were fasted for 12 h prior to the experiment but had free access to water. […] And the concentration of tropifexor was determined to be 20 µg/kg based on body surface area conversion from human administered doses in prior literature ([Chen et al., 2022a]). Experimental group was received of tropifexor (20 µg/kg) via oral gavage, whereas control group was administered of an equivalent volume of corn oil. […] Blood samples were then collected at different time points at 0.5, 1, 1.5, 2, 4, 8, 12, 24, and 48 h after administration. Each blood sample (approximately 0.3 mL) was taken from the caudal veins, and was collected into 1.5 mL heparinized polyethylene tubes. After centrifuged at 13,000 rpm for 10 min, the supernatant was collected and stored at −80 °C. The plasma sample was treated according to 2.4 Pre-treatment of samples before UPLC-MS/MS analysis.
Pharmacokinetic parameters were calculated using the Drug and Statistics (DAS) software (version 3.0 software, Mathematical Pharmacology Professional Committee of China, Shanghai, China) with non-compartment model analyses based on the input data of drug administration route, dosage, drug concentration, and time.

[3] = design: method as in Chen, Li & Chen, 2022; conditions: PBPK model, cancer patients; ref Chen, Li & Chen, 2022; cited from earlier work
[4] = design: method as in Xu et al., 2015; conditions: compared to a single oral dose of 150 mg crizotinib; ref Xu et al., 2015; cited from earlier work
RLM = test system: RLM; design: method as in Wang et al., 2024; conditions: read-out: Km of crizotinib, ref Wang et al., 2024; cited from earlier work
[5] = design: method as in Ou, 2011; conditions: humans, single oral dose of 250 mg/d; ref Ou, 2011; cited from earlier work
[6] = test system: rat liver microsomes (RLM); experiment: Enzyme kinetics of crizotinib in rat liver microsomes (Michaelis-Menten)
Procedure: (§1) Before measurement, the mixture without NADPH was pre-incubated at 37 °C for 5 min. Then, one mM of NADPH was given to incubate the reaction in a water bath with shaking at a rate of 200 times/min. After 30 min, the reaction was terminated by cooling at −80 °C. Next, 300 µL acetonitrile and 10 µL of the IS working solution were added to the mixture. After shaking for 2 min, the supernatant was obtained by centrifugation at 13,000 rpm for 10 min and subjected to UPLC-MS/MS analysis.
(§2) The Km, IC50, the Lineweaver-Burk plot and the mean plasma concentration–time curve were calculated and plotted using GraphPad Prism 9.0 software (GraphPad Software Inc., California, United States).

in vitro [7] = conditions: human, human liver microsomes, pH 7.4, Km of crizotinib, HLM 0.3 mg/mL, 1 mM NADPH, 0.1–50 µM crizotinib
[8] = cited from earlier work
in vitro [9] = conditions: rat, rat liver microsomes, pH 7.4
Procedure: as §1, §2

[10] = design: method as in Johnson et al., 2015; conditions: humans; ref Johnson et al., 2015; cited from earlier work
[11] = design: method as in Qiu et al., 2016; conditions: ref Qiu et al., 2016, cited from earlier work
[12] = biological target: crizotinib metabolism in human liver microsomes (HLM) (Homo sapiens, UniProt P08684); experiment: Inhibition of crizotinib metabolism by tropifexor in HLM (IC50, Lineweaver-Burk); format: in vitro ADME
Chain of crizotinib metabolism in human liver microsomes (HLM) (P08684 2-503): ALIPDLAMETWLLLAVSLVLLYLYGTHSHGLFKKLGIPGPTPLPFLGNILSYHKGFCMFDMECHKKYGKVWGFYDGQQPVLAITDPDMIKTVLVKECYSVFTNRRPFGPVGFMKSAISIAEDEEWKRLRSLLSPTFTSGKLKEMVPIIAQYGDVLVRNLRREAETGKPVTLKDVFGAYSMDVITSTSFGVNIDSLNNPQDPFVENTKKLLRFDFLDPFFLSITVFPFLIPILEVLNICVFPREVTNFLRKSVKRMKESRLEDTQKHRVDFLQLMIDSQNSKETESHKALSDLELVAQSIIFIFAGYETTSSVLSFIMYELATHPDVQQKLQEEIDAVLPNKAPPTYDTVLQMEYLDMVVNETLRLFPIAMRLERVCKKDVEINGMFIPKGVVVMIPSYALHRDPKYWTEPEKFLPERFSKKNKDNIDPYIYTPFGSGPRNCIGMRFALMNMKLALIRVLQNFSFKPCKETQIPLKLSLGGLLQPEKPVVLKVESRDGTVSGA

[13] = test system: crizotinib metabolism in rat liver microsomes (RLM); experiment: Inhibition of crizotinib metabolism by tropifexor in RLM (IC50, Lineweaver-Burk); format: in vitro ADME
[14] = design: method as in Badman et al., 2020; conditions: healthy volunteers, single dose of up to three mg; ref Badman et al., 2020; cited from earlier work
[15] = design: method as in Chen et al., 2022b; conditions: ref Chen et al., 2022b; cited from earlier work
[16] = group Crizotinib + Tropifexor: oral tropifexor 20 µg/kg 30 min before oral crizotinib 25 mg/kg
[17] = group Crizotinib alone: single oral crizotinib 25 mg/kg
[18] = rats, compared to control group

C[C@@H](Oc1cc(-c2cnn(C3CCNC(=O)C3)c2)cnc1N)c1c(Cl)ccc(F)c1Cl (some centres unmarked) [2-Keto crizotinib]
Stability RE ([1]; 2 ng/mL, 10 °C (4 h)): 2.2%
Stability RE ([1]; 2 ng/mL, 21 days at −80 °C): 14.7%
Stability RE ([1]; 2 ng/mL, room temperature (3 h)): 9.9%
Stability RE ([1]; 2 ng/mL, three freeze-thaw (−80 °C/RT)): 11.9%
Stability RE ([1]; 40 ng/mL, 10 °C (4 h)): 0.6%
Stability RE ([1]; 40 ng/mL, 21 days at −80 °C): 5.2%
Stability RE ([1]; 40 ng/mL, room temperature (3 h)): 2.0%
Stability RE ([1]; 40 ng/mL, three freeze-thaw (−80 °C/RT)): −0.7%
Stability RE ([1]; 80 ng/mL, 10 °C (4 h)): −0.6%
Stability RE ([1]; 80 ng/mL, 21 days at −80 °C): 5.9%
Stability RE ([1]; 80 ng/mL, room temperature (3 h)): 3.0%
Stability RE ([1]; 80 ng/mL, three freeze-thaw (−80 °C/RT)): −0.7%
AUC(0-inf) [2, 16]: 880 ± 269 ng·h/mL
AUC(0-t) [2, 16]: 877 ± 268 ng·h/mL
Cmax [2, 16]: 74.3 ± 26.8 ng/mL
Tmax [2, 16]: 8.8 ± 1.79 h
half-life [2, 16]: 5.78 ± 1.79 h
CL/F [2, 16]: 507 mL/min/kg
AUC(0-inf) [2, 17]: 605 ± 99.1 ng·h/mL
AUC(0-t) [2, 17]: 603 ± 97.7 ng·h/mL
Cmax [2, 17]: 51 ± 14.4 ng/mL
Tmax [2, 17]: 8 h
half-life [2, 17]: 4.82 ± 1.18 h
CL/F [2, 17]: 704 mL/min/kg
decrease of CLz/F on co-administration of tropifexor [2, 18]: 27.9%

C[C@@H](Oc1cc(-c2cnn(C3CCNCC3)c2)cnc1N)c1c(Cl)ccc(F)c1Cl [crizotinib, Crizotinib]
predicted increase of AUC when co-administered with fluconazole [3]: 58%
predicted increase of AUC when co-administered with itraconazole [3]: 79%
predicted increase of AUC when co-administered with voriconazole [3]: 84%
increase in AUC on co-administration with ketoconazole [4]: 2.2 fold
Km (RLM): 4.61 ± 0.28 µM
time at which Cmax was observed [5]: 4 h
Vmax [6]: 0.01457 pmol/min/µg protein
Stability RE ([1]; 5 ng/mL, 10 °C (4 h)): 0.5%
Stability RE ([1]; 5 ng/mL, 21 days at −80 °C): −1.9%
Stability RE ([1]; 5 ng/mL, room temperature (3 h)): −9.0%
Stability RE ([1]; 5 ng/mL, three freeze-thaw (−80 °C/RT)): −8.3%
Stability RE ([1]; 120 ng/mL, 10 °C (4 h)): 5.9%
Stability RE ([1]; 120 ng/mL, 21 days at −80 °C): 4.7%
Stability RE ([1]; 120 ng/mL, room temperature (3 h)): −6.9%
Stability RE ([1]; 120 ng/mL, three freeze-thaw (−80 °C/RT)): −7.1%
Stability RE ([1]; 240 ng/mL, 10 °C (4 h)): 3.6%
Stability RE ([1]; 240 ng/mL, 21 days at −80 °C): 6.9%
Stability RE ([1]; 240 ng/mL, room temperature (3 h)): −1.6%
Stability RE ([1]; 240 ng/mL, three freeze-thaw (−80 °C/RT)): −7.4%
AUC(0-inf) [2, 16]: 5670 ng·h/mL
AUC(0-t) [2, 16]: 5560 ng·h/mL
Cmax [2, 16]: 326 ± 41 ng/mL
Tmax [2, 16]: 8.8 ± 1.79 h
half-life [2, 16]: 8.23 ± 1.65 h
CL/F [2, 16]: 76 mL/min/kg
AUC(0-inf) [2, 17]: 4140 ng·h/mL
AUC(0-t) [2, 17]: 4100 ng·h/mL
Cmax [2, 17]: 237 ± 45.3 ng/mL
Tmax [2, 17]: 8.8 ± 1.79 h
half-life [2, 17]: 6.83 ± 0.77 h
CL/F [2, 17]: 102 mL/min/kg
increase of AUC(0−t) on co-administration of tropifexor [2, 18]: 35.7%
increase of AUC(0−∞) on co-administration of tropifexor [2, 18]: 36.9%
Km at 30 min (in vitro [7]): 15 µM
likelihood of crizotinib-induced hepatotoxicity, patients with pre-existing liver conditions vs without liver disease ([8]; ref Jung et al., 2018): 2.3 times
patients with elevated alanine aminotransferase (ALT) levels ([8]; standard dose of crizotinib, ref Kazandjian et al., 2014): 17%
patients with Grade 1 or 2 liver abnormalities ([8]; typically within two months of treatment, reversible, ref Revol et al., 2020): 30%
Km at 30 min (in vitro [9]): 1 µM
drug excreted unchanged in the feces [10]: approximately 63%
Cmax ([11]; SD rats, oral 24 mg/kg): 309 ± 39.8 ng/mL
Tmax ([11]; SD rats, oral 24 mg/kg): 2.00 ± 0.00 h
oral absolute bioavailability ([11]; rats): 68.6 ± 9.63%

O=C(O)c1cc(F)c2nc(N3[C@@H]4CC[C@H]3C[C@@H](OCc3c(-c5ccccc5OC(F)(F)F)noc3C3CC3)C4)sc2c1 [tropifexor, Tropifexor]
inhibition mechanism on crizotinib metabolism [12]: competitive and non-competitive
α [12]: 2.71
IC50 at 0.5 h ([12]; human, liver microsomes, pH 7.4, IC50 of tropifexor on crizotinib metabolism, crizotinib at Km): 4.3 µM
Ki at 0.5 h ([12]; human, liver microsomes, pH 7.4, n = 3): 4.93 µM
αKi ([12]; n = 3): 13.38 µM
inhibition mechanism on crizotinib metabolism [13]: non-competitive and uncompetitive
α [13]: 0.66
Ki ([13]; n = 3): 5.6 µM
αKi ([13]; n = 3): 3.72 µM
IC50 ([13]; read-out: IC50 of tropifexor on crizotinib metabolism, crizotinib at Km): 4.43 µM
safety and tolerability [14]: safe and well-tolerated
decrease in Cmax on co-administration with a CYP3A4 inhibitor [15]: 9%
decrease in Cmax on co-administration with the CYP3A4 inducer rifampin [15]: 55%
